Counter-ions that a name gives are not always drawn. Like-named read-outs stand apart in the source and are kept apart here.
How the values were obtained:
[1] = Metabolite profiling, range over rat and human hepatocytes; type: in vitro ADME; conditions: rat and human hepatocytes after 60 and 120 min incubation
Experimental: (§1) SH-337 was incubated with rat or human hepatocytes at a concentration of 1.0 × 10^6 cells/mL for 60 min or 120 min (rat 60 min, human 120 min) at 37°C in a CO2 incubator. The samples were precipitated with acetonitrile at 1 : 2 and further centrifuged; the supernatants were dried with a stream of N2 gas. The residues were reconstituted with 300 μL of 10% acetonitrile/H2O (0.1% TFA) and analyzed by LC-MS/MS. The assays were pursued under the conditions provided in Supplementary Tables S5–S8.

[2] = Metabolite identification and profiling in rat hepatocytes; type: in vitro ADME; conditions: for Relative peak area, RHeps: SH-337, rat hepatocytes, 60 min incubation
Experimental: as §1

[3] = Metabolite profiling, range over rat and human liver microsomes; type: in vitro ADME; conditions: rat and human microsomes after 30 and 60 min incubation
Experimental: (§2) Liver microsomes (1 mg protein/mL) were suspended in phosphate buffer (50 mM, pH 7.4) containing MgCl2 (6 mM). […] The reactions were initiated at 37°C by the addition of 1 mM NADPH and terminated at 30 min or 60 min (30 min for rat; 60 min for human). The samples were precipitated with acetonitrile at 1 : 2 and further centrifuged; the supernatants were dried with a stream of N2 gas. The residues were reconstituted with 300 μL of 10% acetonitrile/H2O (0.1% TFA) and analyzed by LC-MS/MS. The assays were pursued under the conditions provided in Supplementary Tables S4, S6, S7, and S8.

[4] = Metabolite identification and profiling in rat liver microsomes; type: in vitro ADME
Experimental: as §2

[5] = Metabolite identification and profiling in human liver microsomes; type: in vitro ADME
Experimental: as §2

[6] = Tissue distribution of SH-337 in rats (LC-MS/MS); type: in vivo, rat
Experimental: 15 SPF male SD rats were randomly divided into 5 groups, three per group. Fasting was for 4 hours. Plasma, heart, liver, and stomach were obtained 0.25, 1, 2, 4, and 24 hours after oral administration of SH-337 (0.4 mg/mL in water) at a dose of 4 mg/kg. At designated time points, rats were anesthetized with ether, and the blood samples were collected via the abdominal aorta. The blood was immediately cooled under ice-chilled conditions and centrifuged at approximately 1500 × g at 4°C for 10 minutes to obtain the plasma. For plasma: 20 μL Std samples in duplicate, QC samples in duplicate, and rat plasma samples were mixed with 60 μL ACN containing IS (200 ng/mL of tolbutamide, 50 ng/mL of propranolol, and 500 ng/mL of Dic) in EP tubes. After the mixture was vortexed for 1 min and then centrifuged for 10 min (13000 rpm, 4°C), transfer 50 μL supernatant to a 96-well plate with 150 μL pure water, shake for 10 min, and finally analyze by LC-MS/MS. For heart and liver: tissue samples were added with 3-folds (w/v) saline in terms of the weight of samples and then homogenated. 20 μL Std samples in duplicate, QC samples in duplicate, and rat heart and liver samples were mixed with 60 μL ACN containing IS (200 ng/mL of tolbutamide, 50 ng/mL of propranolol, and 500 ng/mL of Dic) in EP tubes. After the mixture was vortexed for 1 min and then centrifuged for 10 min (13000 rpm, 4°C), transfer 50 μL supernatant to a 96-well plate with 150 μL pure water, shake for 10 min, and finally analyze by LC-MS/MS. For stomach: tissue samples were added with 3-folds (w/v) saline in terms of the weight of samples and then homogenated. 20 μL Std samples in duplicate, QC samples in duplicate, and rat stomach samples were mixed with 60 μL ACN containing IS (200 ng/mL of tolbutamide, 50 ng/mL of propranolol, and 500 ng/mL of Dic) in EP tubes. After the mixture was vortexed for 1 min and then centrifuged for 10 min (13000 rpm, 4°C), transfer 50 μL supernatant to a 96-well plate with 150 μL pure water, shake for 10 min, and finally analyze by LC-MS/MS.

[7] = biological target: T1, rabbit gastric H+, K+-ATPase (Oryctolagus cuniculus, UniProt P27112); experiment: In vitro enzymatic activity assay (inorganic phosphate from ATP hydrolysis); type: biochemical
T1 construct: using rabbit gastric H^+, K^+-ATPase; from tissue; host or cells: rabbit stomach (gastric preparation; the method of preparation is not described)
Experimental: The in vitro enzymatic activity was calculated by measuring the inorganic phosphate produced by the hydrolysis of ATP using rabbit gastric H^+, K^+-ATPase. 0.25 μg enzyme was preincubated at 37°C for 30 min in Tris-HCl buffer (2.0 mL, 50 mM, pH 6.5) containing 5 mM MgCl2, 10 μM valinomycin, 0 or 20 mM KCl, and different concentrations of SH-337 and vonoprazan. The reaction was initiated by adding 5 μL of 5 mM ATP 2Na, and the preparation was incubated for 30 min at 37°C and halted by the addition of 100 μL of malachite green reagent (0.12% malachite green, 7.5% ammonium molybdate, and 11% tween 20 were mixed in a volume ratio of 100 : 25 : 2). H^+, K^+-ATPase activity was calculated after subtracting the enzyme activity in the absence of KCl.

[8] = Metabolite identification and profiling in human hepatocytes; type: in vitro ADME
Experimental: as §1

[9] = parameters: method as in PMID 27414183; conditions: human hepatocytes; ref [42]; cited from earlier work
[10] = log D7.4 measurement (1-octanol/PBS pH 7.4); type: physicochemical; conditions: 1-octanol/PBS, pH 7.4, pH 7.4
Experimental: (§3) Procedure for pKa and log D7.4 measurements. The pKa was determined using pH-metric Method from DMSO Stock Solution. Procedure for Log D determinations: 15 µL of stock solutions of test compounds and control compound was placed in order into their proper 96-well rack. 500 µL of PBS saturated 1-octanol was added into each vial of the cap-less Log D plate followed by the addition of 500 µL of 1-octanol saturated PBS (pH 7.4). One stir stick was added to each vial and a molded PTFE/Silicone plug was used to seal each vial. Then the Log D plate was transferred to the Eppendorf Thermomixer Comfort plate shaker and shaken at 25°C at 1,100 RPM for 1 hour. After completion of 1 hour, plugs were removed and the stir sticks were removed using a big magnet. The samples were then centrifuged at 25°C at 20,000 g for 20 minutes to separate the phases, and pipette and syringe were used to remove the upper (1-octanol) and lower (buffer) phases to the empty tubes, respectively. Aliquots of 5 µL were taken from upper phases followed by addition of 495 µL of a mixture of H2O and acetonitrile (1:1 in v/v). Vortex for 1 minute, and then aliquots of 50 µL were taken from the diluent followed by addition of 450 µL of a mixture of H2O and acetonitrile (1:1 in v/v). And aliquots of 50 µL were taken from lower phases followed by addition of 450 µL of a mixture of H2O and acetonitrile (1:1 in v/v). 200 μL of diluent was transferred to a new 96-well plate for LC-MS/MS analysis. The dilution factor was changed according to the Log D value and the LC-MS signal response. The concentrations of test compound and control compound in 1-octanol/buffer solution were evaluated by LC-MS/MS. The Log D values of the test compounds and control compound were calculated as follows: […]

[11] = pKa measurement (pH-metric method); type: physicochemical; conditions: read-out: pKa
Experimental: as §3

[12] = cited from earlier work
[13] = rats, i.g. 2 mg/kg vonoprazan, ref [43]

T1 sequence (P27112 whole entry): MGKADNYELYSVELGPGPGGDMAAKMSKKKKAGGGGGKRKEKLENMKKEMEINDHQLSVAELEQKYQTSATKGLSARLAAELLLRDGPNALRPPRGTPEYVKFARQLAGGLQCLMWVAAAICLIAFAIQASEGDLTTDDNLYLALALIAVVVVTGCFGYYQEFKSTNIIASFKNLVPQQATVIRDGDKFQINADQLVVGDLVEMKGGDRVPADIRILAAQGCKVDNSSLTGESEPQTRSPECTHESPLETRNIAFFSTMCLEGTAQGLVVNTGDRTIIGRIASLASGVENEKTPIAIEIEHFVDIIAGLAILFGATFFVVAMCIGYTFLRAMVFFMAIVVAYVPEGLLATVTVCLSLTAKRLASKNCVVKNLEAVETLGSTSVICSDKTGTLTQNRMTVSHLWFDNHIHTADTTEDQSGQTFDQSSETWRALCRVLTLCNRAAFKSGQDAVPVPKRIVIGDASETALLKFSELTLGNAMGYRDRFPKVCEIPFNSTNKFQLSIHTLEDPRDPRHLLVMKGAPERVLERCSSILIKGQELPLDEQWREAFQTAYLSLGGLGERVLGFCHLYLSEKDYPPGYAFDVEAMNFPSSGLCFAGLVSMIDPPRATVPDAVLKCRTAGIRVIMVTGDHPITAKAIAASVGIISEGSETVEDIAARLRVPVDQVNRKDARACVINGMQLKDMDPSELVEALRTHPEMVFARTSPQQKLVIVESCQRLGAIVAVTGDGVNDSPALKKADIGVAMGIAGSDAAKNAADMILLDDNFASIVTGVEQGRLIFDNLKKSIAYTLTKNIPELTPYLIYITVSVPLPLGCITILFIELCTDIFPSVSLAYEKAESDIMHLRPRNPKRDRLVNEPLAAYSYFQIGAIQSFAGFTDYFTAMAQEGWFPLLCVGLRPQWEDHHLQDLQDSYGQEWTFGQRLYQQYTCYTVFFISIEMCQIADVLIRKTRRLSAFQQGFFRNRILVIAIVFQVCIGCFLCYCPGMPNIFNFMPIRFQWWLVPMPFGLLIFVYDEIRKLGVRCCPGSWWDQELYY
T1 sequence (P18597 whole entry partner): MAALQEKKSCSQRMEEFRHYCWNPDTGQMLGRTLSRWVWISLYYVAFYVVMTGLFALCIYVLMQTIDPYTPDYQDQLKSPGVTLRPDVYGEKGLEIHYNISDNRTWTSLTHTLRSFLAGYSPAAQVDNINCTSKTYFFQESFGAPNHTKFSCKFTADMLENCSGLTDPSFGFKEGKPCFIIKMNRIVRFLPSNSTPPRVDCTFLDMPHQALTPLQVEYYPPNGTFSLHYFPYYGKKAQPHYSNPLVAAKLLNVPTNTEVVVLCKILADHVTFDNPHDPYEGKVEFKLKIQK

## CN(Cc1cc(-c2ccc(OCC3CC3)cc2F)n(S(=O)(=O)c2cccnc2)c1)S(=O)(=O)O [Sulfated SH-337]
[1]
  Percentage of all SH-337 metabolites in hepatocytes: 0.13%
[2]
  Relative peak area, RHeps: 0.1%
[3]
  Percentage of all SH-337 metabolites in microsomes: 0%

## CNCc1cc(-c2ccc(O)cc2F)n(S(=O)(=O)c2cccnc2)c1.Cl.Cl [M-IV, 3-fluoro-4-(4-((methylamino)methyl)-1-(pyridin-3-ylsulfonyl)-1H-pyrrol-2-yl)phenol dihydrochloride]
[4]; 30 min
  Percentage of all the metabolites except SH-337, RLMs: 90.2%
[4]; SH-337 10 µM, 30 min incubation
  Relative peak area, RLMs: 49%
[1]
  Percentage of all SH-337 metabolites in hepatocytes: 49.4–56.1%
[5]; 60 min
  Percentage of all the metabolites except SH-337, HLMs: 89.4%
[5]; SH-337 10 µM, 60 min incubation
  Relative peak area, HLMs: 27.8%
[6]; after oral dosing of 4.0 mg/kg SH-337
  AUC0–24 in the liver: 3410 ng·h/g
[6]; male, SD, rat, plasma, po, rats, i.g. 4 mg/kg SH-337, read-out: AUC0–24, Plasma
  AUC(0-t): 20.3 ng·h/mL
[6]; rats, i.g. 4 mg/kg SH-337
  AUC0–24, Liver: 3411.2 ng equiv. h/mL or g
  AUC0–24, Stomach: 94.1 ng equiv. h/mL or g
[2]
  Relative peak area, RHeps: 40.3%
[2]; rat hepatocytes, 60 min
  Percentage of all the metabolites except SH-337, RHeps: 56.1%
[7]
  IC50: 112 nM
[3]
  Percentage of all SH-337 metabolites in microsomes: 89.4-90.2%
[8]; SH-337, human hepatocytes, 120 min incubation
  Relative peak area, Hheps: 11.6%
[8]; human hepatocytes, 120 min
  Percentage of all the metabolites except SH-337, Hheps: 49.4%

## C/[N+]([O-])=C/c1cc(-c2ccccc2F)n(S(=O)(=O)c2cccnc2)c1 [M-III]
[9]
  share in the in vitro metabolic profile of vonoprazan: 4.1%

## CNCc1cc(-c2ccc(OCc3cnn(C)c3)cc2F)n(S(=O)(=O)c2cccnc2)c1 [S1, 1-(5-(2-fluoro-4-((1-methyl-1H-pyrazol-4-yl)methoxy)phenyl)-1-(pyridin-3-ylsulfonyl)-1H-pyrrol-3-yl)-N-methylmethanamine fumarate]
[10]
  logD at 1 h: 0.5
[7]
  IC50: 57.8 nM
[11]
  pKa: 9.26

## NCc1cc(-c2ccccc2F)n(S(=O)(=O)c2cccnc2)c1 [N-demethylated vonoprazan]
[9]
  share in the in vitro metabolic profile of vonoprazan: 30%

## CNCc1cc(-c2ccc(OCC3COC3)cc2F)n(S(=O)(=O)c2cccnc2)c1 [S2, 1-(5-(2-fluoro-4-(oxetan-3-ylmethoxy)phenyl)-1-(pyridin-3-ylsulfonyl)-1H-pyrrol-3-yl)-N-methylmethanamine dihydrochloride]
[10]
  logD at 1 h: 0.91
[7]
  IC50: 129 nM
[11]
  pKa: 9.13

## O=C(O)c1cc(-c2ccccc2F)n(S(=O)(=O)c2cccnc2)c1 [M-I]
[9]
  share in the in vitro metabolic profile of vonoprazan: 18%
[12]; after oral dosing of 2.0 mg/kg vonoprazan, ref [43]
  AUC0–24 in the liver: 18400 ng·h/g
[12]; plasma, liver and kidney, rat model, ref [44]
  fold higher levels compared with those of vonoprazan: 4.3- to 58 fold
[12]; [13]
  AUC0–24, Liver: 18404.0 ng equiv. h/mL or g
  AUC0–24, Plasma: 4392.0 ng equiv. h/mL or g
  AUC0–24, Stomach: 918.0 ng equiv. h/mL or g

## CN(Cc1cc(-c2ccc(O)cc2F)n(S(=O)(=O)c2cccnc2)c1)S(=O)(=O)O [M-IV-Sul]
[9]
  share in the in vitro metabolic profile of vonoprazan: 28%

## O=C(O)c1c[nH]c(-c2ccccc2F)c1 [M-II]
[9]
  share in the in vitro metabolic profile of vonoprazan: 0.5%

— article PMC9343080, “Distribution- and Metabolism-Based Drug Discovery: A Potassium-Competitive Acid Blocker as a Proof of Concept” (Research, 2022)
